Results on seven compounds are retold here after patent US20130065922A1, “NOVEL AMIDES AS FUNGICIDES” (priority 2010, published 2013).

One data set has as its system Phytophthora infestans. Nature of the data set: whole plant or invertebrate. It is filed as in vivo. The settings on record: in Solanum lycopersicum, foliar, read-out: inhibit fungal infestation.
The test system of data set [1] is Phaeosphaeria nodorum (Septoria nodorum). Nature of the data set: Phaeosphaeria nodorum (Septoria nodorum)/Wheat/Leaf Disc Preventative (Glume Blotch). It is filed as in vivo. The settings on record: Parastagonospora nodorum, foliar, read-out: inhibit fungal infestation.
The subject of a further data set is Plasmopara viticola. The data set is described as follows: whole plant or invertebrate. It is filed as in vivo. The settings on record: foliar, read-out: inhibit fungal infestation.
Data set [2] relates to Blumeria graminis f. Sp. tritici (Erysiphe graminis f. Sp. tritici). Nature of the data set: Blumeria graminis f. Sp. tritici (Erysiphe graminis f. Sp. tritici)/Wheat/Leaf Disc Preventative (Powdery Mildew on Wheat). It is filed as in vivo. The settings on record: foliar, read-out: inhibit fungal infestation.
The next data set concerns Pythium ultimum. The data set is described as follows: Pythium ultimum/Liquid Culture (Seedling Damping Off). It is filed as cell-based. The settings on record: Globisporangium ultimum, read-out: inhibit fungal infestation.
Setting [3] is: 200 ppm, wheat leaf segments cv. Kanzler, preventative, 5-7 days after application, untreated control infected to over 80%.
The mark [4] stands for this setting: 200 ppm, wheat leaf segments cv. Kanzler, preventative, 6-8 days after application, untreated control infected to over 80%.
Setting [5] is: 200 ppm, liquid culture (PDB), 24° C., growth inhibition photometrically 2-3 days after application.

Molecules are shown by their SMILES. Like-named read-outs stand apart in the source and are kept apart here.

As to `CC#CC(C)(C)NC(=O)C(Oc1cc(Cl)c2ncc(OC)cc2c1)SC` (stereo not drawn) [Compound 14, 2-(8-Chloro-3-methoxy-quinolin-6-yloxy)-N-(1,1-dimethyl-but-2-ynyl)-2-methylsulfanyl-acetamide], the melting point (in general, the temperature of the solid-liquid transition) lay within 133 to 136 °C. In addition, in the data set on Phytophthora infestans, the inhibition at 200 ppm was at least 80%. Also, the inhibition at 200 ppm in data set [1] is at least 80%. The inhibition at 200 ppm with Plasmopara viticola was at least 80%. In addition, the inhibition at 200 ppm in data set [2] was at least 80%. Moreover, the inhibition at 200 ppm with Pythium ultimum is at least 80%.

`CO/N=C/C(C)(C)NC(=O)C(Oc1cc(Cl)c2ncc(OC)cc2c1)SC` (stereo not drawn) [Compound 15, 2-(8-Chloro-3-methoxy-quinolin-6-yloxy)-N-(2-methoxyimino-1,1-dimethyl-ethyl)-2-methylsulfanyl-acetamide] displayed a melting point of 124 to 125 °C. Also, the inhibition at 200 ppm in the data set with Phytophthora infestans is at least 80%. The inhibition at 200 ppm in data set [1] (setting [3]) was at least 80%. The inhibition at 200 ppm in the data set on Plasmopara viticola is at least 80%. In data set [2] (setting [4]), the inhibition at 200 ppm was at least 80%. For the same compound, the inhibition at 200 ppm in the data set on Pythium ultimum (setting [5]) is at least 80%.

In the case of `COCC#CC(C)(C)NC(=O)C(Oc1cc(C)c2ncc(OC)cc2c1)SC` (stereo not drawn) [Compound 17, N-(4-Methoxy-1,1-dimethyl-but-2-ynyl)-2-(3-methoxy-8-methyl-quinolin-6-yloxy)-2-methylsulfanyl-acetamide], the melting point lay within 94 to 98 °C. For the same compound, the inhibition at 200 ppm in the data set on Phytophthora infestans was at least 80%. Moreover, the inhibition at 200 ppm in data set [1] is at least 80%. Also, the inhibition at 200 ppm in the data set with Plasmopara viticola is at least 80%. Besides, the inhibition at 200 ppm in data set [2] was at least 80%. The inhibition at 200 ppm in the data set with Pythium ultimum is at least 80%.

Compound `CO/N=C/C(C)(C)NC(=O)C(Oc1cc(C)c2ncc(OC)cc2c1)SC` (stereo not drawn) [Compound 19, N-(2-Methoxyimino-1,1-dimethyl-ethyl)-2-(3-methoxy-8-methyl-quinolin-6-yloxy)-2-methylsulfanyl-acetamide] registered a melting point of 121 to 124 °C. Moreover, the inhibition at 200 ppm in the data set with Phytophthora infestans is at least 80%. Besides, the inhibition at 200 ppm in data set [1] (setting [3]) was at least 80%. The inhibition at 200 ppm with Plasmopara viticola was at least 80%. Besides, in data set [2] (setting [4]), the inhibition at 200 ppm was at least 80%. The inhibition at 200 ppm with Pythium ultimum (setting [5]) was at least 80%.

The compound `CCOc1cnc2c(C)cc(OC(SC)C(=O)NC(C)(C)/C=N/OC)cc2c1` (stereo not drawn) [Compound 21, 2-(3-Ethoxy-8-methyl-quinolin-6-yloxy)-N-(2-methoxyimino-1,1-dimethyl-ethyl)-2-methylsulfanyl-acetamide] showed a melting point of 125 to 126 °C. The inhibition at 200 ppm in the data set on Phytophthora infestans was at least 80%. Besides, in data set [1] (setting [3]), the inhibition at 200 ppm was at least 80%. Moreover, the inhibition at 200 ppm in the data set with Plasmopara viticola was at least 80%. Besides, in data set [2] (setting [4]), the inhibition at 200 ppm is at least 80%. Also, the inhibition at 200 ppm with Pythium ultimum (setting [5]) is at least 80%.

In turn, `CCOc1cnc2c(C)cc(OC(SC)C(=O)NC(C)(C)C#CCOC)cc2c1` (stereo not drawn) [Compound 22] came in with a melting point of 107 to 109 °C. In the data set on Phytophthora infestans, the inhibition at 200 ppm is at least 80%. Moreover, in data set [1], the inhibition at 200 ppm was at least 80%. In addition, the inhibition at 200 ppm with Plasmopara viticola is at least 80%. The inhibition at 200 ppm in data set [2] is at least 80%. Further, the inhibition at 200 ppm with Pythium ultimum is at least 80%.

As to `CO/N=C/C(C)(C)NC(=O)C(Oc1ccc2ncc(SC)cc2c1)SC` (stereo not drawn) [Compound 27, N-(2-Methoxy-imino-1,1-dimethyl-ethyl)-2-methylsulfanyl-2-(3-methylsulfanyl-quinolin-6-yloxy)-acetamide], the melting point fell in the range of 120 to 122 °C. In the data set with Phytophthora infestans, the inhibition at 200 ppm is at least 80%. Moreover, in data set [1] (setting [3]), the inhibition at 200 ppm is at least 80%. In the data set with Plasmopara viticola, the inhibition at 200 ppm is at least 80%. For the same compound, the inhibition at 200 ppm in data set [2] (setting [4]) was at least 80%. The inhibition at 200 ppm in the data set with Pythium ultimum (setting [5]) is at least 80%.
